Assays:
[1] = target: T1, Full-length human PRMT1 isoform 1 (Homo sapiens, UniProt Q99873); experiment: PRMT1 biochemical assay (3H-SAM Flashplate, peptide substrate)
T1 construct: GST-tagged PRMT1; made in house; host or cells: High Five insect cells (baculovirus, pFastBacI)
Procedure, shortened: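 GST-tagged full-length PRMT1 from baculovirus-infected cells, preincubated 30 min at room temperature with compound in 20 mM Bicine pH 7.6, TCEP, BSG, Tween 20. Reaction started with 3H-SAM plus biotinylated peptide, stopped with 300 uM unlabelled SAM. Streptavidin Flashplate capture and scintillation counting; % inhibition curve-fitted for IC50.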

Human CARM1 (PRMT4) = target: T2, Human CARM1 (PRMT4) (Homo sapiens, UniProt Q86X55); experiment: CARM1 biochemical assay (3H-SAM Flashplate, peptide substrate)
T2 construct: Flag-CARM1-His was eluted with 200 ug/ml FLAG peptide in buffer A; made in house; host or cells: HEK 293F cells (BacMam virus, pFastBacMam)
T2 sequence (Q86X55 with tags, fused parts or gaps isoform Q86X55-1): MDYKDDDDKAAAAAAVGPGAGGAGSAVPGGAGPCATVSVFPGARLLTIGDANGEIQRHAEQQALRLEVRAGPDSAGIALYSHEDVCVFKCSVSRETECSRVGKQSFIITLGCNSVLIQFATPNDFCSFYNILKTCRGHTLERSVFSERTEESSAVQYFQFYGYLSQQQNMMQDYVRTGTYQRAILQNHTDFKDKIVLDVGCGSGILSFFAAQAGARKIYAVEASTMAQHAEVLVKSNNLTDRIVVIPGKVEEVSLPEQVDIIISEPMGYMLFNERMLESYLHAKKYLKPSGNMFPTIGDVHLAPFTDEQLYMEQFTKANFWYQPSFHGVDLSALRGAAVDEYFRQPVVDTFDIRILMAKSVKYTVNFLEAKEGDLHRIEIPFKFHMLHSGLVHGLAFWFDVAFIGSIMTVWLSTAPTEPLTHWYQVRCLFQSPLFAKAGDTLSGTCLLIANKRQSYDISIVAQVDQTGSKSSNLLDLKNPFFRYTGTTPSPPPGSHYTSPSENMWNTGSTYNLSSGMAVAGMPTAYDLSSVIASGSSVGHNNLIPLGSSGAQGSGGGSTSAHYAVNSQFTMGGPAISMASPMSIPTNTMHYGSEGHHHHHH
Procedure, shortened: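 Methylation of a biotin-tagged H3 residues 16-30 peptide by recombinant CARM1 tracked via 3H-SAM incorporation, read as scintillation counts after streptavidin Flashplate capture. Compound and enzyme sat 30 min at room temperature first; unlabelled SAM at 300 uM final stopped the reaction. IC50 from Hill fits of % inhibition normalised to SAH and DMSO controls.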

T1 sequence (Q99873 with tags, fused parts or gaps): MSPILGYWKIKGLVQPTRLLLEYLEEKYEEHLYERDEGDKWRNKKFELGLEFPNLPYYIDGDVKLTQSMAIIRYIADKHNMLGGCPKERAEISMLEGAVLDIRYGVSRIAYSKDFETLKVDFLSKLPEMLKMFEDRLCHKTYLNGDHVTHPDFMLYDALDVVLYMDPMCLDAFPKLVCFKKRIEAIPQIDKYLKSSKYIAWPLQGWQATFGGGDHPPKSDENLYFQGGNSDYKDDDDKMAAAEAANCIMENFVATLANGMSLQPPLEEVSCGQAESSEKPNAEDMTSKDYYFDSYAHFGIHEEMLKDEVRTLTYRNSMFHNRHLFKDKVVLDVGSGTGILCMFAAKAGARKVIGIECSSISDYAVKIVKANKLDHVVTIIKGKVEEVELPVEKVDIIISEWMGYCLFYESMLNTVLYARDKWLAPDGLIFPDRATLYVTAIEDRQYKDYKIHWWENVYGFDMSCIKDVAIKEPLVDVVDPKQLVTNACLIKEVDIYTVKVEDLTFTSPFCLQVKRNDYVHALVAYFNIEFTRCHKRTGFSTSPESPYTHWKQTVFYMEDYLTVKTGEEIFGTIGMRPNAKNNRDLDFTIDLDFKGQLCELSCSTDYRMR

| Compound | IC50 [1] [nM] | IC50 (Human CARM1 (PRMT4)) [nM] |
| --- | --- | --- |
| CCN(CCN)Cc1c[nH]nc1-c1ccc(F)cc1 [Compound 62] | < 100 | 101 to 1000 |
| CCCN(CCN)Cc1c[nH]nc1-c1ccc(F)cc1 [Compound 63] | 1010 to 3000 | > 10000 |
| COCCn1ncc(CN(C)CCN(C)C)c1-c1ccc(F)cc1 [Compound 64] | > 10000 | > 10000 |
| CN(CCN)Cc1cnn(CCO)c1-c1ccc(F)cc1 [Compound 65] | 1010 to 3000 | 3010 to 10000 |
| CN(CCN)Cc1cn(CCO)nc1-c1ccc(F)cc1 [Compound 66] | 1010 to 3000 | 3010 to 10000 |
| CC(C)Oc1ccc(-c2n[nH]cc2CN(C)CCN)cc1 [Compound 67] | – | 101 to 1000 |
| CN(CCN)Cc1c[nH]nc1-c1ccc(C#N)cc1 [Compound 68] | < 100 | 101 to 1000 |
| CN(CCN)Cc1n[nH]cc1-c1ccc(F)cc1 [Compound 69] | < 100 | 3010 to 10000 |
| CN(CCN)Cc1c[nH]nc1-c1cccc(C#N)c1 [Compound 70] | 101 to 1000 | 3010 to 10000 |
| CN(CCN)Cc1c[nH]nc1-c1cccc(F)c1 [Compound 71] | < 100 | 101 to 1000 |
| CN(CCN)Cc1c[nH]nc1-c1ccccc1F [Compound 72] | 101 to 1000 | 3010 to 10000 |
| CN(CCN)Cc1c[nH]nc1-c1ccccc1 [Compound 73] | 101 to 1000 | 1010 to 3000 |
| CN(CCN)Cc1c[nH]nc1-c1ccc(C(C)(C)C)cc1 [Compound 74] | < 100 | 3010 to 10000 |
| CC(C)N(CCN)Cc1c[nH]nc1-c1ccc(F)cc1 [Compound 75] | 101 to 1000 | > 10000 |
| CN(CCN)Cc1cn(CC(O)CO)nc1-c1ccc(F)cc1 (centres unmarked) [Compound 76] | 3010 to 10000 | > 10000 |
| CN(CCN)Cc1cn(C2COC2)nc1-c1ccc(F)cc1 [Compound 77] | 101 to 1000 | 3010 to 10000 |
| NCCN(Cc1c[nH]nc1-c1ccc(F)cc1)C1CC1 [Compound 78] | 101 to 1000 | > 10000 |

| Compound | IC50 [1] [nM] | IC50 (Human CARM1 (PRMT4)) [nM] |
| --- | --- | --- |
| CN(CCN)Cc1cn(CC2COC2)nc1-c1ccc(F)cc1 [Compound 79] | > 10000 | > 10000 |
| CN(CCN)Cc1cnn(CC2COC2)c1-c1ccc(F)cc1 [Compound 80] | > 10000 | > 10000 |
| CN(CCN)Cc1cnn(C2COC2)c1-c1ccc(F)cc1 [Compound 81] | 101 to 1000 | 1010 to 3000 |
| CN(CCN)Cc1c[nH]nc1-c1ccc(N2CCNCC2)cc1 [Compound 82] | < 100 | 3010 to 10000 |
| CN(CCN)Cc1nn(C)cc1-c1ccc(C#N)cc1 [Compound 83] | < 100 | 1010 to 3000 |
| CN(CCN)Cc1c(-c2ccc(C#N)cc2)cnn1C [Compound 84] | > 10000 | > 10000 |
| CN(CCN)Cc1c[nH]nc1-c1ccc(C(F)(F)F)cc1C(F)(F)F [Compound 85] | 101 to 1000 | > 10000 |
| CN(CCN)Cc1c[nH]nc1-c1ccc(Cl)cc1Cl [Compound 86] | < 100 | 3010 to 10000 |
| COc1ccc(-c2n[nH]cc2CN(C)CCN)c(OC)c1 [Compound 87] | 101 to 1000 | 3010 to 10000 |
| Cc1ccc(-c2n[nH]cc2CN(C)CCN)c(C)c1 [Compound 88] | 101 to 1000 | 3010 to 10000 |
| CN(CCN)Cc1c[nH]nc1-c1ccc(F)cc1Cl [Compound 89] | < 100 | 3010 to 10000 |
| Cc1ccc(-c2n[nH]cc2CN(C)CCN)c(Cl)c1 [Compound 90] | < 100 | 3010 to 10000 |
| Cc1ccc(Cl)c(-c2n[nH]cc2CN(C)CCN)c1 [Compound 91] | 101 to 1000 | > 10000 |
| CN(CCN)Cc1c[nH]nc1-c1ccc(C(F)(F)F)cc1 [Compound 92] | < 100 | 101 to 1000 |
| CN(CCN)Cc1c[nH]nc1-c1ccc(OC(F)(F)F)cc1 [Compound 93] | < 100 | 1010 to 3000 |
| CN(CCN)Cc1c[nH]nc1-c1ccc(OC(F)F)cc1 [Compound 94] | < 100 | 101 to 1000 |

Source: patent publication US9346761B2, “Arginine methyltransferase inhibitors and uses thereof” (Epizyme, Inc., priority 2013, dated 2016)
